Experimental data published in patent US11339142B2, “Di-substituted pyrazole compounds for the treatment of diseases” (FGH BIOTECH, INC., priority 2016, dated 2022).
pIC50: −log10 of the molar value.

How the values were obtained:
PCSK9 expression = assay: Quantitative PCR (qPCR) inhibition assay, PCSK9 mRNA expression in Hep G2 cells; format: cell-based; conditions: Homo sapiens, HepG2 cells, 24 hours incubation, mRNA by qPCR; for inhibition at 0.32 µM: 320 nM, read-out: PCSK9 Inhibition Percentage (%) at 320 nM
Protocol: Hep G2 cells were obtained from ATCC and grown in DMEM supplemented with 5% FBS in a 5% CO2 incubator at 37° C. For the assay the cells were plated in 24 well plates at a concentration of 100,000 cells/well in DMEM with 5% FBS. The compounds were serially diluted in DMSO from 0.1 to 20 mM and then diluted 1:1000 in growth medium. The medium was added to the cells in duplicate 24 hours after plating. After 24 hours of incubation the RNA was isolated from the cells using the illustra RNAspin Mini kit (GE Healthcare). For the quantitative PCR the RNA was analyzed using the Power SYBR® Green PCR Master Mix (Applied Biosystems) and gene specific primers. The reaction was run on a StepOnePlus Real-Time PCR System (Thermo Fisher Scientific) and the instrument software was used to determine the Ct values. The fold change of mRNA expression relative to the vehicle control was calculated. Primer sequence was as follows: PCSK9, 5′-[…]-3′/5′-[…]-3′.
(§1) All data for Biological Examples 1a and 1b were measured in HepG2 cells. % inhibition of SCD1 expression, % inhibition of PCSK9 expression, and PCSK9 IC50 data are provided in Table 1. NA means the compound was not active at the concentration tested.

SCD1 expression = assay: Quantitative PCR (qPCR) inhibition assay, SCD1 mRNA expression in Hep G2 cells; format: cell-based; conditions: Homo sapiens, HepG2 cells, 24 hours incubation, mRNA by qPCR, read-out: SCD1 Inhibition Percentage (%) at 1 μM
Protocol: Hep G2 cells were obtained from ATCC and grown in DMEM supplemented with 10% FBS in a 5% CO2 incubator at 37° C. For the assay the cells were plated in 96 well plates at a concentration of 75,000 cells/well in DMEM with 5% FBS. The compounds were serially diluted in DMSO from 30 to 0.1 mM and then diluted 1:1000 in growth medium. The medium was added to the cells in duplicate 24 hours after plating. After 24 hours of incubation the RNA was isolated from the cells using the RNAqueous®-96 Total RNA Isolation Kit (Ambion). The eluted RNA was reverse transcribed using the Cells-to-Ct kit reverse transcriptase (Ambion). For the quantitative PCR the cDNA was analyzed using the Power SYBR® Green PCR Master Mix (Applied Biosystems) and gene specific primers. The reaction was run on an ABI7300 thermocycler and the instrument software was used to determine the Ct values. The fold change of mRNA expression relative to the vehicle control was calculated using the method by Livak. Primer sequence was as follows: SCD1, 5′-[…]-3′/5′-[…]-3′.
as §1

pIC50 (PCSK9 expression)	Structure (SMILES)	inhibition at 0.32 µM (PCSK9 expression) [%]	inhibition at 1 µM (SCD1 expression) [%]
–	CCCn1cc(-n2cc(-c3ccc(OCC(C)C)cc3F)cn2)ccc1=O [Example 31]	10 to 40	–
–	CCCn1cc(-n2cc(-c3ccc(OC(C)CC)nc3C)cn2)ccc1=O (stereo not shown) [Example 3]	10 to 40	≥ 40
–	CCCn1cc(-n2cc(-c3ccc(OC(C)CO)cc3Cl)cn2)ccc1=O (stereo not shown) [Example 37]	–	≥ 40
–	CCCn1cc(-n2cc(-c3ccc(OC(C)C4CC4)nc3C)cn2)ccc1=O (stereo not shown) [Example 11]	–	≥ 40
≥ 6.82	CCCn1cc(-n2cc(-c3ccc(OCC(C)(C)CO)nc3C)cn2)ccc1=O [Example 14]	≥ 40	–
–	CCCn1cc(-n2cc(-c3ccc(OC(CC)CC)cc3Cl)cn2)ccc1=O [Example 38]	≥ 40	–
≥ 6.82	CCCn1cc(-n2cc(-c3ccc(OCC4(CO)CC4)nc3C)cn2)ccc1=O [Example 13]	≥ 40	–
–	CCCn1cc(-n2cc(-c3ccc(OCC4CC4)cc3F)cn2)ccc1=O [Example 30]	10 to 40	–
–	CCCn1cc(-n2cc(-c3ccc(OC(C)C4CC4)cc3Cl)cn2)ccc1=O (stereo not shown) [Example 34]	–	≥ 40
–	CCCn1cc(-n2cc(-c3ccc(O[C@H](C)CC)nc3C)cn2)ccc1=O [Example 10]	≥ 40	≥ 40
–	CCCn1cc(-n2cc(-c3cc(F)c(OCC4CC4)c(F)c3)cn2)ccc1=O [Example 28]	< 10	–
–	CCCn1cc(-n2cc(-c3ccc(O[C@H](C)CC)cc3)cn2)ccc1=O [Example 41]	–	≥ 40
6.22 to 6.82	CCCn1cc(-n2cc(-c3ccc(S(=O)(=O)C4CCC4)cc3F)cn2)ccc1=O [Example 22]	–	≥ 40
–	CCCn1cc(-n2cc(-c3ccc(S(=O)(=O)C4CC4)cc3)cn2)ccc1=O [Example 64]	–	≥ 40
–	CCCn1cc(-n2cc(-c3ccc(S(=O)(=O)CC)cc3Cl)cn2)ccc1=O [Example 55, 5-(4-(2-chloro-4-(ethylsulfonyl)phenyl)-1H-pyrazol-1-yl)-1-propylpyridin-2(1H)-one]	–	≥ 40
6.22 to 6.82	CCCn1cc(-n2cc(-c3ccc(OCC4(CO)COC4)cc3Cl)cn2)ccc1=O [Example 39]	≥ 40	–
–	Cc1nc(OC2CCCC2)ccc1-c1cnn(-c2ccc(=O)n(CC(C)C)c2)c1 [Example 50, 5-(4-(6-(cyclopentyloxy)-2-methylpyridin-3-yl)-1H-pyrazol-1-yl)-1-isobutylpyridin-2(1H)-one]	–	≥ 40
6.22 to 6.82	CCCn1cc(-n2cc(-c3ccc(S(=O)(=O)C(C)C)cc3Cl)cn2)ccc1=O [Example 17]	≥ 40	≥ 40
–	CCCn1cc(-n2cc(-c3ccc(OCC(C)(C)CO)cc3Cl)cn2)ccc1=O [Example 48, 5-(4-(2-chloro-4-(3-hydroxy-2,2-dimethylpropoxy)phenyl)-1H-pyrazol-1-yl)-1-propylpyridin-2(1H)-one]	–	≥ 40
–	CCCn1cc(-n2cc(-c3ccc(OC(C)CCO)cc3Cl)cn2)ccc1=O (stereo not shown) [Example 47, 5-(4-(2-chloro-4-((4-hydroxybutan-2-yl)oxy)phenyl)-1H-pyrazol-1-yl)-1-propylpyridin-2(1H)-one]	–	≥ 40
–	CCCn1cc(-n2cc(-c3ccc(O[C@H](C)CC)cc3Cl)cn2)ccc1=O [Example 36]	–	≥ 40
–	CCCn1cc(-n2cc(-c3ccc(OC)cc3)cn2)ccc1=O [Example 46, 5-(4-(4-methoxyphenyl)-1H-pyrazol-1-yl)-1-propylpyridin-2(1H)-one]	–	10 to 40
–	CCCn1cc(-n2cc(-c3ccc(S(=O)(=O)C(CC)CC)cc3Cl)cn2)ccc1=O [Example 20]	–	≥ 40
≥ 6.82	CCCn1cc(-n2cc(-c3ccc(OCC4(CO)CCC4)nc3C)cn2)ccc1=O [Example 16]	≥ 40	–
≥ 6.82	CCCn1cc(-n2cc(-c3ccc(OCC4(CO)CC4)cc3C)cn2)ccc1=O [Example 81]	≥ 40	–
–	CCCn1cc(-n2cc(-c3ccc(S(=O)(=O)CC)cc3)cn2)ccc1=O [Example 51, 5-(4-(4-(ethylsulfonyl)phenyl)-1H-pyrazol-1-yl)-1-propylpyridin-2(1H)-one]	–	≥ 40
–	CCCn1cc(-n2cc(-c3cnc(OC(C)C)nc3)cn2)ccc1=O [Example 53, 5-(4-(2-isopropoxypyrimidin-5-yl)-1H-pyrazol-1-yl)-1-propylpyridin-2(1H)-one]	< 10	–

pIC50 (PCSK9 expression)	Structure (SMILES)	inhibition at 0.32 µM (PCSK9 expression) [%]	inhibition at 1 µM (SCD1 expression) [%]
–	CCCn1cc(-n2cc(-c3ccc(OCC4CC4)cc3Cl)cn2)ccc1=O [Example 26]	≥ 40	–
–	CCCn1cc(-n2cc(-c3ccc(S(=O)(=O)C(C)C)cc3F)cn2)ccc1=O [Example 21]	–	≥ 40
–	CCCn1cc(-n2cc(-c3ccc(S(=O)(=O)C4CC(F)(F)C4)cc3C)cn2)ccc1=O [Example 80]	10 to 40	–
–	CCCn1cc(-n2cc(-c3ccc(OC(C)C)nc3C)cn2)ccc1=O [Example 2]	–	≥ 40
–	CCCn1cc(-n2cc(-c3ccc(OC4CCCC4)nc3C)cn2)ccc1=O [Example 1, 5-(4-(6-(cyclopentyloxy)-2-methylpyridin-3-yl)-1H-pyrazol-1-yl)-1-propylpyridin-2(1H)-one]	–	≥ 40
–	CCCn1cc(-n2cc(-c3ccc(OCC4CC4)c(C)c3)cn2)ccc1=O [Example 29]	< 10	–
–	CCCn1cc(-n2cc(-c3ccc(S(=O)(=O)CC4CC4)cc3Cl)cn2)ccc1=O [Example 19]	–	≥ 40
–	CCCn1cc(-n2cc(-c3ccc(OC4CC4)nc3C)cn2)ccc1=O [Example 12]	–	10 to 40
–	CCCn1cc(-n2cc(-c3ccc(OC)cc3Cl)cn2)ccc1=O [Example 45, 5-(4-(2-chloro-4-methoxyphenyl)-1H-pyrazol-1-yl)-1-propylpyridin-2(1H)-one]	–	10 to 40
–	CCCn1cc(-n2cc(-c3cnc(S(=O)(=O)C(C)C)nc3)cn2)ccc1=O [Example 54, 5-(4-(2-(isopropylsulfonyl)pyrimidin-5-yl)-1H-pyrazol-1-yl)-1-propylpyridin-2(1H)-one]	< 10	–
–	CCCn1cc(-n2cc(-c3ccc(OCC4(CO)CC4)cc3Cl)cn2)ccc1=O [Example 32]	–	≥ 40
–	CCCn1cc(-n2cc(-c3ccc(OC(F)(F)F)cc3Cl)cn2)ccc1=O [Example 4]	–	≥ 40
≥ 6.82	CCCn1cc(-n2cc(-c3ccc(S(=O)(=O)C4CCC4)cc3C)cn2)ccc1=O [Example 78]	≥ 40	–
–	CCCn1cc(-n2cc(-c3ccc(OC(C)C)cc3Cl)cn2)ccc1=O [Example 40]	–	10 to 40
–	CCCn1cc(-n2cc(-c3ccc(S(=O)(=O)C(C)C)nc3C)cn2)ccc1=O [Example 52, 5-(4-(6-(isopropylsulfonyl)-2-methylpyridin-3-yl)-1H-pyrazol-1-yl)-1-propylpyridin-2(1H)-one]	< 10	–
6.22 to 6.82	CCCn1cc(-n2cc(-c3ccc(OCC(C)C)cc3Cl)cn2)ccc1=O [Example 8]	≥ 40	–
–	CCCn1cc(-n2cc(-c3ccc(S(=O)(=O)C(C)C)cc3)cn2)ccc1=O [Example 25]	–	≥ 40
–	CCCn1cc(-n2cc(-c3ccc(O[C@@H](C)CC)cc3Cl)cn2)ccc1=O [Example 35]	–	≥ 40
–	CCCn1cc(-n2cc(-c3ccc(OC4CCC4)nc3C)cn2)ccc1=O [Example 7]	–	≥ 40
–	CCCn1cc(-n2cc(-c3ccc(OCC4CC4)c(F)c3)cn2)ccc1=O [Example 27]	< 10	–
–	CCCn1cc(-n2cc(-c3ccc(S(=O)(=O)C4CCC(F)(F)CC4)cc3C)cn2)ccc1=O [Example 79]	10 to 40	–
–	CCCn1cc(-n2cc(-c3ccc(OCC(F)(F)CO)nc3C)cn2)ccc1=O [Example 82]	≥ 40	–
–	CCCn1cc(-n2cc(-c3ccc(OCCCO)cc3Cl)cn2)ccc1=O [Example 33]	–	≥ 40
–	CCCn1cc(-n2cc(-c3ccc(OC(C)CO)cc3)cn2)ccc1=O (stereo not shown) [Example 42]	–	10 to 40
≥ 6.82	CCCn1cc(-n2cc(-c3ccc(OCC4(CO)CCC4)cc3Cl)cn2)ccc1=O [Example 49, 5-(4-(2-chloro-4-((1-(hydroxymethyl)cyclobutyl)methoxy)phenyl)-1H-pyrazol-1-yl)-1-propylpyridin-2(1H)-one]	≥ 40	–
≥ 6.82	CCCn1cc(-n2cc(-c3ccc(OCC4(CO)COC4)nc3C)cn2)ccc1=O [Example 15]	≥ 40	–
